# Experimental data from patent US10947229B2, “Dimethyl amino azetidine amides as JAK inhibitors” (THERAVANCE BIOPHARMA R&D IP, LLC, priority 2018, dated 2021).
# Experiments:
# [1] = Lung and plasma drug concentration in the IL-13 pSTAT6 mouse model; type: in vivo; conditions: lung to plasma ratio at 5 hours
# Protocol: Adult Balb/c mice from Harlan were used in the assay. […] Animals were placed in lateral recumbency post dose and monitored for full recovery from anesthesia before being returned to their home cage. Four hours later, animals were once again briefly anesthetized and challenged with either vehicle or IL-13 (0.03 μg total dose delivered, 50 μL total volume) via oral aspiration before being monitored for recovery from anesthesia and returned to their home cage. One hour after vehicle or IL-13 administration, whole blood and lungs were collected for both pSTAT6 detection in lung homogenates using a Perkin Elmer AlphaLISA® SureFire® Ultra™ HV p-STAT6 (Tyr641) assay kit and for total drug concentration analysis in both lung and plasma. Blood samples were centrifuged (Eppendorf centrifuge, 5804R) for 4 minutes at approximately 12,000 rpm at 4° C. to collect plasma. […] Plasma and lung levels of test compound were determined by LC-MS analysis against analytical standards constructed into a standard curve in the test matrix. A lung to plasma ratio was determined as the ratio of the lung concentration in ng/g to the plasma concentration in ng/mL at 5 hours.
# [2] = Pharmacokinetics in plasma and lung in mouse; type: in vivo; conditions: single oral aspiration, 0.2 mg/mL, 50 μL
# Protocol: Plasma and lung concentrations of test compounds and ratios thereof were determined in the following manner. BALB/c mice from Charles River Laboratories were used in the assay. Test compounds were individually formulated in 20% propylene glycol in pH 4 citrate buffer at a concentration of 0.2 mg/mL and 50 μL of the dosing solution was introduced into the trachea of a mouse by oral aspiration. At various time points (typically 0.167, 2, 6, 24 hr) post dosing, blood samples were removed via cardiac puncture and intact lungs were excised from the mice.
# [3] = system: IFNγ induced CXCL9 secretion; assay: Inhibition of IFNγ induced CXCL9 in human 3D airway cultures; type: cell-based; conditions: 192 h, 8 days, 4 donors
# Protocol: EpiAirway tissue cultures were obtained from Mattek (AIR-100). Cultures were derived from asthmatic donors. In a cell culture insert, human derived tracheal/bronchial epithelial cells were grown and differentiated on a porous membrane support, allowing an air-liquid interface with warmed culture medium below the cells and a gaseous test atmosphere above. Tissues were cultured in maintenance media ([…]) in a 37° C., 5% CO2 humidified incubator. Four donors were tested. On Day 0, tissue cultures were treated with test compounds in liquid interface at 10 μM, 1 μM and/or 0.1 μM. Compounds were diluted in dimethyl sulfoxide (DMSO, Sigma) to a final concentration of 0.1%. DMSO at 0.1% was used as a vehicle control. […] Tissue cultures were maintained for 8 days. Media was replaced every 2 days with fresh media containing compounds and IFNγ or IL-27. On Day 8, tissue cultures and supernatants were collected for analysis. Supernatant samples were assayed for CXCL10 (IP-10) and CXCL9 (MIG) using luminex analysis (EMD Millipore). Data is expressed as % Inhibition+/-standard deviation (±STDV). Percent inhibition was determined by compound inhibitory potency against IFNγ or IL-27 induced CXCL10 or CXCL9 secretion compared to vehicle treated cells. Data is the average from 4 donors.
# [4] = system: IFNγ secretion in mixed lymphocyte reaction; assay: Inhibition of IFNγ secretion in a mixed lymphocyte reaction assay; type: cell-based, human
# Protocol: The mixed lymphocyte reaction assay is an in-vitro assay that mimics transplant rejection. T cells from one donor are cultured with allogeneic dendritic cells from another donor. This reaction induces a cellular immune response such as IFNγ secretion. CD14+ monocytes were isolated from human whole blood (Stanford blood center) of donor A using a ficoll gradient and magnetic seperation (CD14 microbeads, Miltenyi). […] Cells were harvested, washed with media, re-suspended to 400,000 cells/ml in media and plated at 10,000 cells/well/25 μl. CD4+ T cells were freshly isolated from human whole blood (Stanford blood center) of donor B using a ficoll gradient and magnetic separation (CD4+ T cell isolation kit, Miltenyi). T cells were re-susepended to 4,000,000 cells/ml in RPMI (Life Technologies) supplemented with 10% Fetal Bovine Serum (FBS, Life Technologies), 2 mM Glutamax (Life Technologies), 25 mM HEPES (Life Technologies) and 1× Pen/Strep (Life Technologies). CD4+ T cells were mixed with the dendritic cells at 100,000 cells/well/25 μl. Cells were treated with test compounds (50 μl at 20 μM, 2 μM and/or 0.2 μM) to a final concentration of 10 μM, 1 μM and/or 0.1 μM. Compounds were diluted in dimethyl sulfoxide (DMSO, Sigma) to a final concentration of 0.1%. DMSO at 0.1% was used as a vehicle control. Cells were maintained for 5 days in a 37° C., 5% CO2 humidified incubator. On day 5, supernatants were collected and measured for interferon gamma (INFγ) using enzyme linked immunosorbent assay (ELISA). Percent inhibition was determined by compound inhibitory potency against IFNγ secretion compared to vehicle treated cells. Data is the average from 4 donors.
# [5] = system: spontaneous periostin secretion; assay: Inhibition of spontaneous periostin secretion in human 3D airway cultures from asthmatic donors; type: cell-based; conditions: 192 h, 8 days, 3 or 4 donors
# Protocol: EpiAirway tissue cultures were obtained from Mattek (AIR-100). Cells were derived from asthmatic donors that spontaneously secrete periostin, a matricellular protein associated with Th2 mediated asthma (eosinophilic), and interleukin-6 (IL-6), an inflammatory cytokine that plays a role in both Th2 and non-Th2 related asthma. In a cell culture insert, human derived tracheal/bronchial epithelial cells were grown and differentiated on a porous membrane support, allowing an air-liquid interface with warmed culture medium below the cells and a gaseous test atmosphere above. Tissues were cultured in maintenance media ([…]) in a 37° C., 5% CO2 humidified incubator. Four donors were tested. On Day 0, tissue cultures were treated with test compounds in liquid interface at 10 μM, 1 μM and/or 0.1 μM. Compounds were diluted in dimethyl sulfoxide (DMSO, Sigma) to a final concentration of 0.1%. DMSO at 0.1% was used as a vehicle control. Tissue cultures were maintained for 8 days. Media was replaced every 2 days with fresh media containing compounds. On Day 8, supernatants were collected for analysis. […] Data is expressed as % Inhibition+/-standard deviation (±STDV). Percent inhibition was determined by compound inhibitory potency against spontaneous secretion of periostin and IL-6 compared to vehicle treated cells. […]
# [6] = system: spontaneous IL-6 secretion; assay: Inhibition of spontaneous IL-6 secretion in human 3D airway cultures from asthmatic donors; type: cell-based; conditions: 192 h, 8 days, 3 or 4 donors
# Protocol: EpiAirway tissue cultures were obtained from Mattek (AIR-100). Cells were derived from asthmatic donors that spontaneously secrete periostin, a matricellular protein associated with Th2 mediated asthma (eosinophilic), and interleukin-6 (IL-6), an inflammatory cytokine that plays a role in both Th2 and non-Th2 related asthma. In a cell culture insert, human derived tracheal/bronchial epithelial cells were grown and differentiated on a porous membrane support, allowing an air-liquid interface with warmed culture medium below the cells and a gaseous test atmosphere above. Tissues were cultured in maintenance media ([…]) in a 37° C., 5% CO2 humidified incubator. Four donors were tested. On Day 0, tissue cultures were treated with test compounds in liquid interface at 10 μM, 1 μM and/or 0.1 μM. Compounds were diluted in dimethyl sulfoxide (DMSO, Sigma) to a final concentration of 0.1%. DMSO at 0.1% was used as a vehicle control. Tissue cultures were maintained for 8 days. Media was replaced every 2 days with fresh media containing compounds. On Day 8, supernatants were collected for analysis. Supernatant samples were assayed for periostin and interleukin-6 (IL-6) using luminex analysis (EMD Millipore). Data is expressed as % Inhibition+/-standard deviation (±STDV). Percent inhibition was determined by compound inhibitory potency against spontaneous secretion of periostin and IL-6 compared to vehicle treated cells. Data is the average from 3 or 4 donors.
structure (smiles),measurement,setting,value
"CCc1cc(O)ccc1-c1ccc2c(-c3nc4c([nH]3)CN(C(C)C)[C@H](C(=O)N3CC(N(C)C)C3)C4)n[nH]c2c1 [Compound 1, (S)-(3-(dimethylamino)azetidin-1-yl)(2-(6-(2-ethyl-4-hydroxyphenyl)-1H-indazol-3-yl)-5-isopropyl-4,5,6,7-tetrahydro-3H-imidazo[4,5-c]pyridin-6-yl)methanone]",exposure in lung versus plasma (in words),[1],significantly more exposure in the lung than exposure in plasma
same,AUC(0-t),"[2]; BALB/c, in vivo, 10 µg/animal, read-out: Plasma AUC(0-24)",943 ng·h/mL
same,Lung Tissue AUC(0-24),[2],54.5 µg·h/g
same,inhibition at 0.1 µM,[3]; 0.1 μM,16%
same,inhibition at 1 µM,[3]; 1 μM,93%
same,inhibition at 10 µM,[3]; 10 μM,100%
same,inhibition at 0.1 µM,"[4]; Homo sapiens, Lymphocyte, 120 h, 0.1 μM, 5 days, 4 donors",43%
same,inhibition at 10 µM,"[4]; Homo sapiens, Lymphocyte, 120 h, 10 μM, 5 days, 4 donors",99%
same,inhibition at 1 µM,"[4]; Homo sapiens, Lymphocyte, 120 h, printed ""at μM"" (middle concentration, 1 μM in the method), 5 days, 4 donors",76%
same,inhibition of IFNγ secretion (in words),[4]; mixed lymphocyte reaction,effectively inhibit IFNγ secretion
same,inhibition at 1 µM,[5]; 1 μM,40%
same,inhibition at 10 µM,[5]; 10 μM,62%
same,inhibition at 0.1 µM,[6]; 0.1 μM,10%
same,inhibition at 1 µM,[6]; 1 μM,70%
same,inhibition at 10 µM,[6]; 10 μM,91%
